In patent publication US11883539B2, “Pharmaceutical compositions of berberine with EPA and DHA, and methods thereof” (SHENZHEN HIGHTIDE BIOPHARMACEUTICAL, LTD., priority 2015, dated 2024):
Where two headings read alike, the source gives them in different places.

Assay: Single-dose pharmacokinetics study in rats (BBR•HCl, EPA-EE, BBR + EPA-EE; 3 rats per group)
Assay type: in vivo
Conditions: male, Sprague-Dawley, rat, SD rats, single oral administration, plasma
Method: In the single-dose pharmacokinetics study in rats, after 7-day acclimation, healthy male Sprague-Dawley (SD) rats with the body weight of 210-250 g were randomized into four groups as follows (3 rats per group).
The rats in each group were orally treated with the suspensions of the corresponding testing articles indicated above in 0.5% gum tragacanth respectively. Blood samples of the test animals were collected pre-dose and at the time points of 15 min, 30 min, 1 h, 1.5 h, 2 h, 4 h, 8 h, 24 h post-dose. The collected blood samples (approximately 400 μL) were placed into tubes containing heparin sodium and centrifuged at 8,000 rpm for 6 minutes at 4° C. to separate plasma. The obtained plasma from each sample was stored at −80° C. until being analyzed.
Plasma concentrations of BBR and EPA were determined using tandem mass spectrometry (LC-MS/MS) analysis. A non-compartmental module of WinNonlin® Professional 5.2 (Pharsight; St. Louis MO), was used to calculate PK parameters. The abbreviation AUC(0-t) represents area under the curve from the time of dosing to the time of the last observation, the AUC(0-∞) represents area under the curve from the time of dosing to infinity, and the Cmax represents maximum concentration detected.

Row | AUC(0-t) (BBR•HCl 51.13 mg/Kg (alone or + EPA-EE 45.48 mg/Kg), read-out: BBR AUC(0-t)) | AUC(0-inf) (BBR•HCl 51.13 mg/Kg (alone or + EPA-EE 45.48 mg/Kg), read-out: BBR AUC(0-∞)) | Cmax (BBR•HCl 51.13 mg/Kg (alone or + EPA-EE 45.48 mg/Kg), read-out: BBR Cmax) | AUC(0-t) (EPA-EE 45.48 mg/Kg (alone or + BBR•HCl 51.13 mg/Kg), read-out: EPA (Free acid) AUC(0-t)) | AUC(0-inf) (EPA-EE 45.48 mg/Kg (alone or + BBR•HCl 51.13 mg/Kg), read-out: EPA (Free acid) AUC(0-∞)) | Cmax (EPA-EE 45.48 mg/Kg (alone or + BBR•HCl 51.13 mg/Kg), read-out: EPA (Free acid) Cmax) | Compound
1 | 7.46 ng·h/mL | 8.84 ng·h/mL | 0.95 ng/mL |  |  |  | COc1ccc2cc3[n+](cc2c1OC)CCc1cc2c(cc1-3)OCO2 [BBR, 5,6-dihydro-9,10-dimethoxybenzo[g]-1,3-benzodioxolo[5,6-a]quinolizinium]
2 |  |  |  | 3750 ng·h/mL | 6600 ng·h/mL | 629 ng/mL | CCC=CCC=CCC=CCC=CCC=CCCCC(=O)O (stereo in doubt) [EPA, (5Z,8Z,11Z,14Z,17Z)-5,8,11,14,17-icosapentaenoic acid]
